Converted amounts (≈) assume the structure as drawn.
How the values were obtained:
in vitro [1] = settings: human, liver microsomes
in vitro [2] = settings: human, plasma
in vitro [3] = settings: human, hepatocytes
AMPK α1β2γ1 = AMPK α1β2γ1 (Homo sapiens, UniProt O43741+Q13131); experiment: Caliper mobility shift kinase assay, FAM-SAMS peptide; assay type: biochemical
HepG2 = experiment: cells; settings: Homo sapiens, HepG2, read-out: Hu HepG2 EC50
AMPK α1β1γ1 = AMPK α1β1γ1 (Homo sapiens, UniProt Q13131+Q9Y478); experiment: Caliper mobility shift kinase assay, FAM-SAMS peptide; assay type: biochemical
Sequence of AMPK α1β1γ1 (Q13131 whole entry): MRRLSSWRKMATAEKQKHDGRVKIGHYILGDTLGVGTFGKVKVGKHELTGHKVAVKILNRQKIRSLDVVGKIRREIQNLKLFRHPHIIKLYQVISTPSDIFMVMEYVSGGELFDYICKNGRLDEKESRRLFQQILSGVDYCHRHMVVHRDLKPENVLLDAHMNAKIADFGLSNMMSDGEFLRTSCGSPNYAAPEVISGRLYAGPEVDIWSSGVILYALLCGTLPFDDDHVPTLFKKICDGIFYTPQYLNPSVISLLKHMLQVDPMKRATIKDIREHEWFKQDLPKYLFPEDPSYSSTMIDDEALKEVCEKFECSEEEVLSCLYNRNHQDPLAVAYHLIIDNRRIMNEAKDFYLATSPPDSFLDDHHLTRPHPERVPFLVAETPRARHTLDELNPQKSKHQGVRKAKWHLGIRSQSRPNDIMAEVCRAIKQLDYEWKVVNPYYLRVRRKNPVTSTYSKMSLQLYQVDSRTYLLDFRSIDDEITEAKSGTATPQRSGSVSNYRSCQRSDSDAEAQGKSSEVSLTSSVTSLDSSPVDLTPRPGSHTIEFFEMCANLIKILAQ
Sequence of AMPK α1β1γ1 (Q9Y478 2-270): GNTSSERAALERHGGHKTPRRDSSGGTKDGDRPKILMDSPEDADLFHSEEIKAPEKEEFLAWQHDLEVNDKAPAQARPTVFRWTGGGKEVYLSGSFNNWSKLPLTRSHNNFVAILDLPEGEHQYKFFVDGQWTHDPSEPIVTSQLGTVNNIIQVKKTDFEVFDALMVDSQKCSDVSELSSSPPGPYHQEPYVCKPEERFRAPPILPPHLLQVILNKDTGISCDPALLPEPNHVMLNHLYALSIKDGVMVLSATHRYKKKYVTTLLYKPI
Sequence of AMPK α1β1γ1 (P54619 whole entry partner): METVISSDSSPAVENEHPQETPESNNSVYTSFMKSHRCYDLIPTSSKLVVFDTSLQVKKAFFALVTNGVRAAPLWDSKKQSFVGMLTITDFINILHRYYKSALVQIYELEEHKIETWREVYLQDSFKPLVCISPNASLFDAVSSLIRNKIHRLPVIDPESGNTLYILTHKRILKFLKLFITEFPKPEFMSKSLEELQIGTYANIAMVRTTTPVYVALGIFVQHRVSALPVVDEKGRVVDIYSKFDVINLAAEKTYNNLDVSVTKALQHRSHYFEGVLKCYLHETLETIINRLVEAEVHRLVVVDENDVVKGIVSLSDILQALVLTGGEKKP

physchem [4] = settings: 1-octanol/phosphate buffer, pH 7.4
in vitro [5] = settings: human, Caco-2
physchem [6] = settings: aqueous phosphate buffer, pH 7.4, aqueous buffer
in vitro [7] = settings: mouse, hepatocytes
in vitro [8] = settings: rat, hepatocytes

Sequence of AMPK α1β2γ1 (Q13131 whole entry): as the sequence (Q13131 whole entry) above
Sequence of AMPK α1β2γ1 (O43741 whole entry): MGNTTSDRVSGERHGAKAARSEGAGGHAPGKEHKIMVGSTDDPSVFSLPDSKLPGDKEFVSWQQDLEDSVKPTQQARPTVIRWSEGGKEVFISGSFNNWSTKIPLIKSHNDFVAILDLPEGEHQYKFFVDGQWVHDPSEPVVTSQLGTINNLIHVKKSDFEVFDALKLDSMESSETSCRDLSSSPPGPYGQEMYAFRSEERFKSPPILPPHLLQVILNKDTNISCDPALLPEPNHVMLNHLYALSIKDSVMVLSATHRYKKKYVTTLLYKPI
Sequence of AMPK α1β2γ1 (P54619 whole entry partner): as the sequence (P54619 whole entry partner) above

Structure (SMILES): CS(C)(=O)=Nc1ccc(-c2ccc(-c3nc4[nH]c(O[C@@H]5CO[C@H]6[C@@H]5OC[C@H]6O)nc4cc3Cl)cc2)cc1 [BI9774]
- microsomal CLint (in vitro [1]): < 3 µL/min/mg
- fraction unbound (in vitro [2]): 0.037
- hepatocyte CLint (in vitro [3]): < 1 µL/min/1e6 cells
- EC50 (AMPK α1β2γ1): 63.1 ± 14.7 nM
- EC50 (HepG2): 83.2 nM
- EC50 (AMPK α1β1γ1): 20 ± 9.5 nM
- logD (physchem [4]): 2.8
- Papp (in vitro [5]): 26 ×10⁻⁶ cm/s
- solubility at 27 h (physchem [6]): 8 µM (≈ 4.33 µg/mL)
- hepatocyte CLint (in vitro [7]): 8.6 µL/min/1e6 cells
- hepatocyte CLint (in vitro [8]): < 1.4 µL/min/1e6 cells

— article doi:10.1101/2024.05.30.596624v1 (biorxiv, 2024)
